The results in this text go back to patent publication US4717722A, “Substituted 1-oxa-dethiacephalosporins as anti-inflammatory and antidegenerative agents” (Merck & Co., Inc., priority 1984, dated 1988).

The experiment concerns the target T1, Human Polymorphonuclear Leukocyte Elastase (Homo sapiens, UniProt P08246).
T1 construct: Crude extract of human polymorphonuclear leukocytes (PMN) containing elastase activity; endogenous in cells; host or cells: human polymorphonuclear leukocytes (PMN), crude extract
T1 sequence (P08246 30-247 limits assumed): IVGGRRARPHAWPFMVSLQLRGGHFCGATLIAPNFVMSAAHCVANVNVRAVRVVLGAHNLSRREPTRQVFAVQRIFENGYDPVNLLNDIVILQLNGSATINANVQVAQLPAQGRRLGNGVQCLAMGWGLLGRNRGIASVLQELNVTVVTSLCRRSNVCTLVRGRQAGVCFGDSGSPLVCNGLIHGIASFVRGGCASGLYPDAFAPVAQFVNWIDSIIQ
Put plainly: Inhibition of human polymorphonuclear leukocyte elastase via hydrolysis of Boc-AAPAN. In kind it is biochemical. As to conditions: effective dosage for 50% inhibition of the enzyme activity 2 minutes after zero time; crude PMN extract, 0.2 mM Boc-AAPAN, pH 7.5; read-out: ED50 (the source's name) (converted). The method, then: Enzyme Assays for the Inhibition of Human Polymorphonuclear Leukocyte Elastase Via Hydrolysis of N-t-Boc-alanyl-alanyl-prolylalanine-p-nitroanilide Reagents
0.05 M TES (N-tris[hydroxymethyl]methyl-2-amino-ethanesulfonic acid) Buffer, pH 7.5.
0.2 mM N-t-Boc-alanyl-alanyl-prolyl-alanine-p-nitroanilide (Boc-AAPAN).
To prepare substrate, the solid (m.w. 550) was first dissolved in 10.0 ml DMSO. Buffer at pH 7.5 was then added to a final volume of 100 ml.
Crude extract of human polymorphonuclear leukocytes (PMN) containing elastase activity.
Inhibitors (cephalosporin sulfone esters) to be tested dissolved in DMSO just before use.
To 1.0 ml of 0.2 mM Boc-AAPAN in a cuvette, 0.01-0.1 ml of DMSO with or without inhibitor was added. After mixing, a measurement was taken at 410 mμ to detect any spontaneous hydrolysis due to presence of test compound. 0.05 Milliliters of PMN extract was then added and the ΔOD/min at 410 mμ was measured and recorded. Beckman model 35 spectrophotometer was used.
Results were reported as ED50, i.e., effective dosage in micrograms per milliliter (μg/ml) for 50% inhibition of the enzyme activity 2 minutes after zero time.
The elastase activity in the crude PMN extract may vary from one preparation to another. A control of each new batch is run, and the volume added in the assay procedure is adjusted according to activity.

The structures appear in SMILES notation. A value given as a limit tells only on which side of the number the result lay.

Take `COC1(NC(=O)C(C(=O)OCc2ccccc2)c2ccc(O)cc2)C(=O)N2C(C(=O)OCc3ccccc3)=C(C)COC21` (stereo not shown): the IC50 is 29 µM.
`COC(=O)C1=C(CSc2nnnn2C)COC2N1C(=O)C2(NC(=O)C(C(=O)OC)c1ccc(O)cc1)OC` (stereo not shown): the IC50 was at least 36.5 µM.
As for `CC1=C(C(=O)OCc2ccccc2)N2C(=O)C(NC(=O)c3ccccc3)C2OC1` (stereo not shown) [C6 H5 CONH], the IC50 is 51 µM.
Take `CC1=COC2C(NC(=O)c3ccccc3)C(=O)N2C1C(=O)OCc1ccccc1` (stereo not shown): the IC50 is 12.7 µM.
